The results in this text go back to article PMC7188855, “Nucleic acid recognition and antiviral activity of 1,4-substituted terphenyl compounds mimicking all faces of the HIV-1 Rev protein positively-charged α-helix” (Scientific Reports, 2020).

Data set [1] concerns high-order RRE-Rev. Kind of data set: EMSA of full-length RRE-Rev ribonucleoprotein formation. It is filed as binding, HIV-1. The settings on record: 78 nM RRE, 1.32 μM Rev, 300 mM KCl, 1 mM MgCl2, band of high-order complexes. An excerpt: After the high-affinity interaction between RRE subdomain IIB and the Rev34–50 helix of the first Rev monomer is established, the RRE-Rev ribonucleoprotein is formed by the incorporation of additional Rev units binding to further sites in the RRE (Fig. 3B, right)[9],[10],[13]. Using an electrophoretic mobility shift assay (EMSA) involving full-length RRE and Rev, we also evaluated whether 1,4-terphenyl compounds were capable of interfering with the formation of the ribonucleoprotein. […] The effect was particularly prominent for high-order complexes (containing a greater number of Rev monomers), but the inhibition of low-order complexes by 1d was also detected at concentrations consistent with the IC50 value measured in the IIB-Rev34–50 displacement experiment. Compounds 1b and 3c exerted a weaker effect on the RRE-Rev complex, in agreement with the results obtained in the displacement experiments monitored by fluorescence anisotropy (Fig. 3B and Table 1).
(§1) The experiments monitoring RRE-Rev inhibition utilized 78 nM full-length RRE and 1.32 μM full-length Rev dissolved in 10 mM HEPES pH 7.5, 300 mM KCl, 1 mM MgCl2 and 0.5 mM EDTA binding buffer, and increasing concentrations of each compound up to 50 μM[21],[39]. The reactions were incubated at room temperature for 20 minutes and loaded onto 8% polyacrylamide gels with TB running buffer. Gels were run at 4 °C for 1–4 hours at 150 V, and the bands were stained with SYBR gold and quantified with Quantity One 4.1 analysis software. Experiments monitoring binding to the 58-base pair HIV-1 LTRc core segment utilized 20 nM LTRc duplex dissolved in the same binding buffer, and increasing concentrations of each compound. The reactions were similarly incubated and loaded onto 20% polyacrylamide gels with TB running buffer. The gels were run at 4 °C for 3.5 hours at 150 V, and the bands were stained and quantified as described above. The specificity of LTRc association was evaluated by duplicating the experiments in the presence of a 100-fold molar excess of DNAd duplex (28-fold base-pair molar excess). In all cases, we monitored the disappearance of the band corresponding to high-order RRE-Rev complexes or free LTRc, and 50% response RC50 values were determined with Prism by fitting the data to a sigmoidal inhibitory model: I−Imin=ImaxC/1+C/RC50 where I is the intensity of the band corresponding to LTRc or high-order RRE-Rev species at compound concentration C, Imax the best-fit value for maximum intensity, and Imin the minimum intensity obtained at the highest concentration of inhibitor. All EMSA experiments were repeated three times for each compound.

In data set [2] the target is RRE subdomain IIB RNA hairpin IIBh. Put plainly: Fluorescence intensity binding to fluorescein-labelled IIBh hairpin. The arrangement: species or system HIV-1. The text has this:
We next determined whether the terphenyl molecules blocked the interaction between Rev34–50 and subdomain IIB by binding to the RNA and, if so, whether they recognized subdomain IIB in a manner similar to the Rev34–50 α-helix. We first evaluated subdomain IIB association by measuring changes in the fluorescence intensity of a IIBh RNA hairpin construct containing a fluorescein probe attached to unpaired loop IIB residue U23 (Fig. 1D)[21],[22]. […] However, there were significant differences among the compounds.
(§2) These experiments measured association to IIBh-23fl or TARh-8fl RNA molecules labelled with fluorescein at extrahelical loop nucleotides U23 and U8, respectively (Fig. 1D), and were carried out under two different ionic conditions in a Victor X5 plate reader, using excitation and emission wavelengths of 485 and 520 nm, respectively. We also attempted to measure association to an alternative IIBh hairpin containing 2-aminopurine instead of adenine at unpaired loop IIB residue A19[21], but all terphenyls fluoresced at the excitation wavelength of this fluorophore. IIBh-23fl or TARh-8fl (at 100 nM concentration) was equilibrated for 5 minutes after each ligand addition in a buffer containing either 10 mM sodium phosphate pH 6.6 and 0.1 mM EDTA or 10 mM HEPES pH 7.5, 200 mM KCl and 2 mM MgCl2. In addition to the TARh specificity control, the RNA and DNA specificity of the IIBh interactions was assessed by duplicating the experiments in the presence of a 10-fold molar excess (1 μM) of either tRNA^Lys or DNA duplex LTRd. The equilibrium dissociation constants Kd were determined by fitting the fluorescence intensity curves with DYNAFIT[40]. We used one-site, two independent-sites and two interacting-sites binding models for all curves, and the best model was automatically selected by model discrimination analysis, except where indicated. The final graphs were plotted with Prism. All fluorescence intensity experiments were performed at least two times for each compound and condition.

Data set [3] addresses TARh hairpin containing the HIV-1 Tat-binding UCU bulge. Put plainly: Fluorescence intensity binding to control TARh hairpin.
Excerpt: To evaluate the specificity of subdomain IIB recognition, we measured binding to a control TARh hairpin containing the HIV-1 Tat-binding UCU bulge[23] (Fig. 1D). […] We further assessed specificity by duplicating the IIBh-23fl association experiments in the presence of a 10-fold molar excess of tRNA^Lys or a 26-base pair LTRd DNA duplex. The binding curves of the compounds were affected by the presence of competitive tRNA^Lys and to a lesser extent by LTRd (Figs. 4A, S4 and S5 and Tables 2 and S2).
as §2

Data set [4] deals with HIV-1. Put plainly: Cellular HIV-1 infection assay (NL4.3-Ren, MT-2 cells). The format is cell-based. The note with it: Human immunodeficiency virus 1, MT2, 48 h post-infection. As for the experimental part:
(§3) The methodology used to perform and analyse these experiments has been reported elsewhere[7],[21],[22]. Briefly, infectious supernatants were obtained from transfection of plasmid pNL4.3-Ren on 293 T cells, MT-2 cells were infected with these supernatants in the presence of the compounds, and anti-HIV activity quantification was performed 48 h post-infection by determining luciferase activity in cell lysates compared to a non-treated control (100%). Cellular viability was evaluated in mock infected cells similarly treated with the same concentrations of compounds using the CellTiterGlo (Promega) assay.

Data set [5] is described as follows: Cellular viability (CellTiterGlo) in mock infected cells. It is filed as cell-based. The note with it: human, mock infected MT-2 cells. The method, then: as §3
For data set [6], the system named is LTRc, core region of the HIV-1 LTR promoter. Put plainly: EMSA of association to LTRc DNA. It is filed as binding. The settings on record: 20 nM LTRc duplex; 10 mM HEPES pH 7.5, 300 mM KCl, 1 mM MgCl2, 0.5 mM EDTA. The method, then:
as §1
In general terms: Mobility shift assays separate free from complexed probe on a gel.

Data set [7] deals with RRE subdomain IIB-Rev34–50. Kind of data set: Fluorescence anisotropy displacement of the IIBh-Rev34–50 interaction. The settings on record: read-out: IC50, RRE subdomain IIB-Rev34–50, 60 nM IIBh, 10 nM frevp, 100 mM KCl, 20 mM NaCl, 2 mM MgCl2. A general note: Fluorescence polarisation rises when a labelled molecule tumbles more slowly, as on binding a larger partner.
Experimental: These experiments were conducted in a Victor X5 (PerkinElmer) plate reader as described before[7],[21], using 10 nM frevp and 60 nM IIBh. […] Each fluorescence anisotropy experiment was repeated at least two times.
Where [8] appears, read: low ionic strength, 10 mM sodium phosphate pH 6.6, uses Kd1.
The mark [9] stands for this setting: low ionic strength, 10 mM sodium phosphate pH 6.6, 0.1 mM EDTA, two-site model, read-out: Kd,1 first-site equilibrium dissociation constant (IIBh), Table S1.
Where [10] appears, read: low ionic strength, 10 mM sodium phosphate pH 6.6, 0.1 mM EDTA, two-site model, read-out: Kd,2 second-site equilibrium dissociation constant (IIBh), Table S1.

Like-named read-outs stand apart in the source and are kept apart here. Bounds are passed on as bounds.

Take `CCc1cc(-c2cc(CCN)c(OC)cc2CCN)c(CC)cc1-c1cc(CCN)c(OC)cc1CCN` [Compound 1b]: the concentration for half-maximal inhibition (IC50) is more than 50 µM in data set [1] and more than 100 µM in data set [7]. Further, the Kd is 0.51 µM in data set [2] (10 mM sodium phosphate pH 6.6, 0.1 mM EDTA, two-site model, read-out: Kd (IIBh), first-site Kd1); 21 µM in data set [2] (10 mM sodium phosphate pH 6.6, 0.1 mM EDTA, two-site model, read-out: Kd (IIBh), second-site Kd2 (in brackets)); 6.5 µM in data set [2] (10-fold molar excess DNA duplex LTRd, 10 mM sodium phosphate pH 6.6, 0.1 mM EDTA, one-site fit, approximate, read-out: Kd (IIBh+LTRd)); more than 50 µM in data set [2] (10-fold molar excess LTRd, 10 mM HEPES pH 7.5, 200 mM KCl, 2 mM MgCl2, read-out: Kd (IIBh+LTRd), one-site or first-site Kd1, Table S2); more than 50 µM in data set [2] (10-fold molar excess tRNALys, 10 mM HEPES pH 7.5, 200 mM KCl, 2 mM MgCl2, one-site fit, approximate, read-out: Kd (IIBh+tRNA), Table S2); 8.7 µM in data set [2] (10-fold molar excess tRNALys, 10 mM sodium phosphate pH 6.6, 0.1 mM EDTA, one-site fit, approximate, read-out: Kd (IIBh+tRNA)). For the same compound, the equilibrium dissociation constant (Kd) is more than 50 µM in data set [2] (higher ionic strength, 10 mM HEPES pH 7.5, 200 mM KCl, 2 mM MgCl2, read-out: Kd (IIBh), first-site Kd1, Table S2); more than 50 µM in data set [3] (10 mM sodium phosphate pH 6.6, 0.1 mM EDTA, read-out: Kd (TARh), one-site or first-site Kd1); more than 50 µM in data set [3] (higher ionic strength, 10 mM HEPES pH 7.5, 200 mM KCl, 2 mM MgCl2, read-out: Kd (TARh), Table S2). Besides, the “IIB-DNA spec., Kd(IIBh)/Kd(IIBh+LTRd)” value in data set [2] (setting [8]) amounted to 0.078. The “IIB-tRNA spec., Kd(IIBh)/Kd(IIBh+tRNA)” value in data set [2] (setting [8]) was 0.059. In data set [4], this compound yielded a half-maximal effective concentration (EC50) of more than 100 µM. The same compound had a CC50 at 48 h in data set [5] of more than 100 µM. For the same compound, in data set [6], the “association to LTRc (EMSA)” value is “not detected”.
On to `CCOc1cc(CCN)c(-c2cc(C)c(-c3cc(CCN)c(OCC)cc3CCN)cc2C)cc1CCN` [Compound 1c], for which the Kd in data set [2] (setting [9]) came to 0.19 µM; in data set [2] (setting [10]) it was 74 µM. In data set [4], the EC50 is more than 100 µM. The 50% cytotoxic concentration (CC50) at 48 h in data set [5] was more than 100 µM. Besides, the IC50 in data set [7] is more than 100 µM.
Take `COc1cc(CCCN)c(-c2cc(C)c(-c3cc(CCCN)c(OC)cc3CCCN)cc2C)cc1CCCN` [Compound 2a]: the results for the Kd in data set [2] (setting [9]) and in data set [2] (setting [10]) were 0.67 µM and 25 µM, respectively. In data set [4], the concentration for a half-maximal effect (EC50) is more than 100 µM. Besides, the CC50 at 48 h in data set [5] was more than 100 µM. The IC50 in data set [7] was more than 100 µM.
`CCc1cc(-c2cc(CCCN)c(OC)cc2CCCN)c(CC)cc1-c1cc(CCCN)c(OC)cc1CCCN` [Compound 2b]: the values for the Kd in data set [2] (setting [9]) and in data set [2] (setting [10]) were 0.11 µM and 46 µM, respectively. This compound also returned an EC50 in data set [4] of more than 100 µM. Also, the CC50 at 48 h in data set [5] is more than 100 µM. Also, in data set [7], the IC50 is more than 100 µM.
As for `COc1ccc(-c2cc(C)c(-c3cc(CCN)c(OC)cc3CCN)cc2C)cc1CCN` [Compound 3a], the equilibrium dissociation constant (Kd) came out at 8.9 µM in data set [2] (setting [9]) and 36 µM in data set [2] (setting [10]). Also, the EC50 in data set [4] amounted to 35.5 µM. The compound also came in with a CC50 at 48 h in data set [5] of more than 100 µM. In addition, in data set [7], the IC50 is more than 100 µM.
As for `COc1ccc(-c2cc(C)c(-c3cc(CCN)ccc3CCN)cc2C)cc1CCN` [Compound 3b], the Kd in data set [2] (setting [9]) came out at 5.5 µM; in data set [2] (setting [10]), 22 µM. In data set [4], the EC50 was more than 100 µM. This compound registered a CC50 at 48 h in data set [5] of more than 100 µM. Also, the IC50 in data set [7] is more than 100 µM.
Turning to `Cc1cc(-c2cc(CCN)ccc2CCN)c(C)cc1-c1ccccc1CCN` [Compound 4], the Kd worked out at 3.7 µM in data set [2] (setting [9]) and 33 µM in data set [2] (setting [10]). In data set [4], this compound had an EC50 of 50 to 100 µM. In data set [5], the 50% cytotoxic concentration (CC50) at 48 h was more than 100 µM. Also, the IC50 in data set [7] is more than 100 µM.

Usually IC50 stands for the concentration that gives 50% inhibition. Usually Kd stands for the concentration at which binding is half-saturated. One may read the EC50 as the midpoint of the concentration-response curve. The low end stands for a more potent agent, the high end for a less potent agent. For orientation: CC50 means the concentration at which the toxic effect on the cells reaches its halfway point. A low value points to greater toxicity to the cells.
